Each substance was assayed on human PKA catalytic subunit C-alpha mRNA (assay: Inhibition of PKA catalytic subunit C-alpha mRNA levels in oligonucleotide-treated cells, quantitative real-time PCR). Settings: Table 1, phosphorothioate oligodeoxynucleotides, averages from two experiments.
Type: cell-based
Set-up: concentration or dose not given beside the values
Method: when cells reached 80% confluency, they were treated with oligonucleotide. For cells grown in 96-well plates, wells were washed once with 200 μL. OPTI-MEM™-1 reduced-serum medium (Gibco BRL) and then treated with 130 μL of OPTI-MEM™-1 containing 3.75 μg/mL LIPOFECTIN™ (Gibco BRL) and the desired concentration of oligonucleotide. After 4-7 hours of treatment, the medium was replaced with fresh medium. Cells were harvested 16-24 hours after oligonucleotide treatment.
Poly(A)+ mRNA was isolated according to Miura et al., Clin. Chem., 1996, 42, 1758-1764. Other methods for poly(A)+ mRNA isolation are taught in, for example, Ausubel, F. M. et al., Current Protocols in Molecular Biology, Volume 1, pp. 4.5.1-4.5.3, John Wiley & Sons, Inc., 1993. Briefly, for cells grown on 96-well plates, growth medium was removed from the cells and each well was washed with 200 μL cold PBS. 60 μL lysis buffer (10 mM Tris-HCl, pH 7.6, 1 mM EDTA, 0.5 M NaCl, 0.5% NP-40, 20 mM vanadyl-ribonucleoside complex) was added to each well, the plate was gently agitated and then incubated at room temperature for five minutes. 55 μL of lysate was transferred to Oligo d(T) coated 96-well plates (AGCT Inc., Irvine Calif.). Plates were incubated for 60 minutes at room temperature, washed 3 times with 200 μL of wash buffer (10 mM Tris-HCl pH 7.6, 1 mM EDTA, 0.3 M NaCl). After the final wash, the plate was blotted on paper towels to remove excess wash buffer and then air-dried for 5 minutes. 60 μL of elution buffer (5 mM Tris-HCl pH 7.6), preheated to 70° C. was added to each well, the plate was incubated on a 90° C. hot plate for 5 minutes, and the eluate was then transferred to a fresh 96-well plate.
Quantitat:ion of PKA catalytic subunit C-alpha mRNA levels was determined by real-time quantitative PCR using the ABI PRISM™ […] Sequence Detection System (PE-Applied Biosystems, Foster City, Calif.) according to manufacturer's instructions. This is a closed-tube, non-gel-based, fluorescence detection system which allows high-throughput quantitation of polymerase chain reaction (PCR) products in real-time. As opposed to standard PCR, in which amplification products are quantitated after the PCR is completed, products in real-time quantitative PCR are quantitated as they accumulate. This is accomplished by including in the PCR reaction an oligonucleotide probe that anneals specifically between the forward and reverse PCR primers, and contains two fluorescent dyes. A reporter dye (e.g., JOE, FAM, or VIC, obtained from either Operon Technologies Inc., Alameda, Calif. or PE-Applied Biosystems, Foster City, Calif.) is attached to the 5' end of the probe and a quencher dye (e.g., TAMRA, obtained from either Operon Technologies Inc., Alameda, Calif. or PE-Applied Biosystems, Foster City, Calif.) is attached to the 3' end of the probe. When the probe and dyes are intact, reporter dye emission is quenched by the proximity of the 3' quencher dye. During amplification, annealing of the probe to the target sequence creates a substrate that can be cleaved by the 5'-exonuclease activity of Taq polymerase. […] With each cycle, additional reporter dye molecules are cleaved from their respective probes, and the fluorescence intensity is monitored at regular intervals by laser optics built into the ABI PRISM™ 7700 Sequence Detection System. In each assay, a series of parallel reactions containing serial dilutions of mRNA from untreated control samples generates a standard curve that is used to quantitate the percent inhibition after antisense oligonucleotide treatment of test samples.
PCR reagents were obtained from PE-Applied Biosystems, Foster City, Calif. […]
“102547 (antisense ACCCTCGCAGGATTGGCAGA; chemistry not given here) [compound 102547]” was tested, and the “% Inhibition of PKA catalytic subunit C-alpha mRNA levels” value (from here on “% Inhibition”) was 53%. In the case of “102563 (antisense CCTTGAACCCCGGGCCGTGG; chemistry not given here) [compound 102563]”, the “% Inhibition” value is reported as 56%. “102518 (antisense AAACCACTTGTGGTTCTTGA; chemistry not given here) [compound 102518]” was tested, and the “% Inhibition” value was 34%. With “102506 (antisense GCGGCCCTTCACGCGCTTGG; chemistry not given here) [compound 102506]” the “% Inhibition” value was 0%. With “102442 (antisense CATCGCGGCGGCGGCGGCCG; chemistry not given here) [compound 102442]” the “% Inhibition” value was 49%. With “102514 (antisense TCCTTCAAGTCAGAGCTGAA; chemistry not given here) [compound 102514]” the “% Inhibition” value was 44%. In the case of “102450 (antisense GCGTTGCCCATCGCGGCGGC; chemistry not given here) [compound 102450]”, the “% Inhibition” value is reported as 64%.

Same assay, conditions: Table 2, chimeric phosphorothioate 2'-MOE gapmers, averaged from two experiments
With “102707 (antisense GGAGCAGCTGGTGTTTCTGT; chemistry not given here) [compound 102707]” the “% Inhibition” value was 73%. “102594 (antisense TGGCTGCGGCCGGCGGCCCG; chemistry not given here) [compound 102594]” was tested, and the “% Inhibition” value was 55%. For “102700 (antisense CTTCCTCATAGTCGTCAAAG; chemistry not given here) [compound 102700]”, the “% Inhibition” value was 44%. “102720 (antisense GCTTCTCTTTAAAATGGATT; chemistry not given here) [compound 102720]” was tested, and the “% Inhibition” value was 56%. “102672 (antisense GTTGTCCTTGAAGGAGAACT; chemistry not given here) [compound 102672]” was tested, and the “% Inhibition” value was 28%. For “102614 (antisense CCCATCGCGGCGGCGGCGGC; chemistry not given here) [compound 102614]”, the “% Inhibition” value was 77%.

— patent US6248586A, “Antisense modulation of PKA catalytic subunit C-alpha expression” (Isis Pharmaceuticals, Inc., priority 1999, dated 2001)
